Test results from PubChem BioAssay (NCI).
Where “and” joins values, the source holds several entries; their conditions need not be identical. Identical values can stand only once.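 Briefly, cells in 96-well plates were exposed to five compound concentrations for 48 h, and endpoints were estimated by linear interpolation. Abbreviation: GI50, concentration required for 50% inhibition of growth. TGI denotes the concentration required for complete inhibition of growth.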

Assays:
Test in all cases: NCI-60 cell line screen, 48 h
[1] = tested on: MCF7 breast
[2] = tested on: SNB-19 CNS
[3] = tested on: DU-145 prostate
[4] = tested on: SF-268 CNS
[5] = tested on: NCI-H522 lung
[6] = tested on: U251 CNS
[7] = tested on: SK-MEL-2 melanoma

| Structure (SMILES) | GI50 [1] | TGI [1] | GI50 [2] | TGI [2] | GI50 [3] | TGI [3] | GI50 [4] | TGI [4] | GI50 [5] | TGI [5] | GI50 [6] | TGI [6] | GI50 [7] | TGI [7] |
| --- | --- | --- | --- | --- | --- | --- | --- | --- | --- | --- | --- | --- | --- | --- |
| CO/N=C(\COc1ccc2c(c1)[nH]c1ccccc12)c1ccc(OC)cc1 | 49.8 µM | > 100 µM | 24.4 µM | > 100 µM | > 100 µM | > 100 µM | 56.1 µM | > 100 µM | 49.1 µM | > 100 µM | 15.2 µM | > 100 µM | – | – |
| COc1ccc2c(c1)C(=O)/C(=C/c1cccc(OCC(=O)c3ccccc3)c1)CC2 | 4.53 µM | > 100 µM | 39.6 µM | > 100 µM | 32.6 µM | > 100 µM | 45.2 µM | > 100 µM | 8.84 µM | > 100 µM | 16.8 µM | > 100 µM | 13.4 µM | > 100 µM |
| O=C(Oc1cccnc1)c1cccnc1Nc1ccnc(C(F)(F)F)c1 | 2.68 µM | > 100 µM | 48.9 µM | > 100 µM | 15 µM | 42.1 µM | 5.63 µM | > 100 µM | 14.5 µM | > 100 µM | 14.3 µM | 47.3 µM | 5.7 µM | 62 µM |
| CN(C)CCNC(=O)Cn1ccc(=O)c2cc([N+](=O)[O-])ccc21 | – | > 100 µM | – | > 100 µM | – | > 100 µM | – | > 100 µM | – | > 100 µM | – | > 100 µM | – | > 100 µM |
| FC(F)(F)c1cccc(-c2nc3nc(Cl)c(Cl)nc3[nH]2)c1 | – | 8.95 µM | – | > 59.2 µM | – | > 100 µM | – | > 65.8 µM | – | 4.11 µM | – | 13.6 µM | – | 6.02 µM |
| c1ccc(-c2nc(-c3ccccn3)nc(-c3ccccn3)n2)nc1 | 29.6 µM | > 100 µM | > 100 µM | > 100 µM | 48.9 µM | > 100 µM | 32.4 µM | > 100 µM | 21.6 µM | 81.8 µM | 48.6 µM | > 100 µM | 63.3 µM | > 100 µM |
| Cn1ncc(-c2ccc3c(=O)[nH]nc(CN)c3c2)c1-c1c(F)c(Cl)cc(OC2CC2)c1C#N | 10.8 µM and 10.2 µM | 23.6 µM and 23.3 µM | 15.3 µM and 14.6 µM | 31.7 µM and 29.5 µM | 16.9 µM and 14.4 µM | 32.2 µM and 28.1 µM | 14.1 µM and 12.8 µM | 28.8 µM and 26.7 µM | 12.7 µM and 9.22 µM | 27.4 µM and 23.1 µM | 14.9 µM and 13.7 µM | 29.5 µM and 27.5 µM | 15.3 µM and 13.6 µM | 29.1 µM and 26.8 µM |
| CC(CO)Nc1cc(-c2[nH]c3cccnc3c2-c2ccc(F)cc2)ccn1 (stereo not given) | 9.36 µM | > 25 µM | > 21.6 µM | > 25 µM | 17.6 µM | > 25 µM | 16.7 µM | > 25 µM | > 25 µM | > 25 µM | 15.4 µM | > 25 µM | > 25 µM | > 25 µM |
| CCOc1ccccc1CCN=C1NC(=O)/C(=C/c2ccc3ncccc3c2)S1 | 0.792 µM | > 25 µM | 1.46 µM | > 25 µM | 1.2 µM | > 16.2 µM | 1.35 µM | > 25 µM | 0.676 µM | 3.49 µM | 1.2 µM | > 25 µM | 4.64 µM | 11.5 µM |
